Measured values from ChEMBL document CHEMBL1201862, “PubChem BioAssay data set” (2004).
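96-well plates; 48 h exposure; 5 concentrations. Endpoints by linear interpolation between flanking doses. Not reached: highest tested concentration assigned. GI50 = concentration required for 50% inhibition of growth.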 Activity calls are given as the source filed them. Rule as the data show it: active = GI50 up to about 1.1 µM and inactive = higher.

How the values were obtained:
Assay in all cases: DTP human tumour cell line panel, 48 h
SF-268 = test system: SF-268
IGROV-1 = test system: IGROV-1
COLO 205 = test system: COLO 205
HCT-116 = test system: HCT-116
U-251 = test system: U-251
OVCAR-8 = test system: OVCAR-8
SN12C = test system: SN12C
SK-OV-3 = test system: SK-OV-3
HL-60 = test system: HL-60
MOLT-4 = test system: MOLT-4
SK-MEL-28 = test system: SK-MEL-28
SF-295 = test system: SF-295
HOP-62 = test system: HOP-62
UO-31 = test system: UO-31
Malme-3M = test system: Malme-3M
SW-620 = test system: SW-620
M14 = test system: M14
SF-539 = test system: SF-539
HOP-92 = test system: HOP-92

Measured: GI50

CC(=O)n1[nH]c(=O)n(-c2ccc(Cl)cc2)c1=O
inactive: SF-268 > 100 µM | IGROV-1 > 100 µM | COLO 205 > 100 µM | HCT-116 > 100 µM | U-251 > 100 µM | OVCAR-8 > 100 µM | SN12C > 100 µM | SK-OV-3 > 100 µM | HL-60 > 100 µM | MOLT-4 > 100 µM | SK-MEL-28 > 100 µM | SF-295 > 100 µM | HOP-62 > 100 µM | UO-31 > 100 µM | Malme-3M 45.9 µM | SW-620 > 100 µM | M14 > 100 µM

Nc1ccc2ncc(Nc3ccc(F)cc3)nc2c1
inactive: SF-268 > 100 µM | COLO 205 > 100 µM | HCT-116 > 100 µM | U-251 > 100 µM | OVCAR-8 > 100 µM | SN12C > 100 µM | HL-60 > 100 µM | MOLT-4 27.7 µM | SK-MEL-28 > 100 µM | SF-295 > 100 µM | HOP-62 > 100 µM | UO-31 99.3 µM | SF-539 90.4 µM | Malme-3M > 100 µM | SW-620 > 100 µM | M14 > 100 µM

CCC(C)[C@@H](NCc1ccccc1)[C@H](OCc1ccccc1)[C@@H]1COC(C)(C)O1 (some centres not stated)
inactive: HOP-92 10.4 µM | SF-268 22.8 µM | IGROV-1 17.6 µM | COLO 205 15.9 µM | HCT-116 13 µM | U-251 19.2 µM | OVCAR-8 20.5 µM | SN12C 22.6 µM | SK-OV-3 30.5 µM | MOLT-4 25.5 µM | SK-MEL-28 24.8 µM | SF-295 21 µM | HOP-62 32.2 µM | UO-31 17.3 µM | Malme-3M 18.4 µM | SW-620 18 µM | M14 29.2 µM

CC(=O)O[C@H]1CC2C(C3CCC(C(C)CCC(=O)O)[C@]31C)[C@H](OC(C)=O)C[C@@H]1CC3(CC[C@]21C)OOC1(CC[C@]2(C)C4C[C@H](OC(C)=O)[C@]5(C)C(C(C)CCC(=O)O)CCC5C4[C@H](OC(C)=O)C[C@@H]2C1)OO3 (some centres not stated)
inactive: SF-268 1.38 µM | IGROV-1 2.12 µM | COLO 205 1.91 µM | HCT-116 1.75 µM | U-251 1.28 µM | OVCAR-8 1.66 µM | SN12C 2.42 µM | SK-OV-3 4.08 µM | HL-60 1.51 µM | MOLT-4 2.03 µM | SK-MEL-28 4.09 µM | SF-295 1.77 µM | HOP-62 1.83 µM | UO-31 1.74 µM | Malme-3M 1.52 µM | SW-620 3.46 µM | M14 2.53 µM

COc1cc(O)c2c(=O)c3c(C)cccc3n(C)c2c1
inactive: HOP-92 > 10 µM | SF-268 > 10 µM | IGROV-1 > 10 µM | COLO 205 > 10 µM | HCT-116 > 10 µM | U-251 > 10 µM | OVCAR-8 > 10 µM | SN12C > 10 µM | SK-OV-3 > 10 µM | MOLT-4 > 10 µM | SK-MEL-28 > 10 µM | SF-295 > 10 µM | HOP-62 > 10 µM | UO-31 > 10 µM | SF-539 > 10 µM | Malme-3M > 10 µM | SW-620 > 10 µM | M14 > 10 µM

N#Cc1c(-c2ccccc2)c(/N=N/c2ccc(Cl)cc2)c(=O)n2c1[nH]c1ccccc12
inactive: SF-268 79.1 µM | IGROV-1 73.1 µM | COLO 205 > 100 µM | HCT-116 31 µM | U-251 21.2 µM | OVCAR-8 90.2 µM | SN12C > 100 µM | SK-OV-3 94.2 µM | SK-MEL-28 > 100 µM | SF-295 76.7 µM | HOP-62 27.2 µM | UO-31 46.9 µM | SF-539 > 100 µM | Malme-3M > 100 µM | SW-620 > 100 µM | M14 > 100 µM

O=C(Cn1c(=O)oc2ccccc21)N(c1ccccc1)c1ccccc1
inactive: SF-268 67.5 µM | IGROV-1 26.5 µM | COLO 205 > 100 µM | HCT-116 > 100 µM | U-251 95.1 µM | OVCAR-8 52.8 µM | SN12C > 100 µM | SK-OV-3 > 100 µM | HL-60 > 100 µM | MOLT-4 > 100 µM | SK-MEL-28 > 100 µM | SF-295 > 100 µM | HOP-62 > 100 µM | UO-31 > 100 µM | SF-539 88.9 µM | Malme-3M 3.39 µM | SW-620 > 100 µM | M14 > 100 µM

CN(C(=O)Cc1ccc(Cl)c(Cl)c1)[C@H]1CCCC[C@@H]1[N+]1(C)CCCC1
inactive: SF-268 > 100 µM | IGROV-1 > 100 µM | COLO 205 > 100 µM | HCT-116 > 100 µM | U-251 > 100 µM | OVCAR-8 > 100 µM | SN12C > 100 µM | SK-OV-3 > 100 µM | MOLT-4 > 100 µM | SK-MEL-28 > 100 µM | SF-295 > 100 µM | HOP-62 > 100 µM | UO-31 > 100 µM | SF-539 > 100 µM | Malme-3M > 100 µM | SW-620 > 100 µM | M14 > 100 µM

COC(C(=O)NN)c1ccccc1 (configuration not stated)
inactive: HOP-92 > 100 µM | SF-268 > 100 µM | IGROV-1 > 100 µM | U-251 > 100 µM | OVCAR-8 > 100 µM | SN12C > 100 µM | SK-OV-3 > 100 µM | MOLT-4 > 100 µM | SK-MEL-28 > 100 µM | SF-295 > 100 µM | HOP-62 > 100 µM | UO-31 > 100 µM | SF-539 > 100 µM | Malme-3M > 100 µM | SW-620 > 100 µM | M14 > 100 µM

COc1cccc2[nH]c(-c3ccccn3)nc12
inactive: HOP-92 > 100 µM | SF-268 72.4 µM | IGROV-1 > 100 µM | COLO 205 > 100 µM | HCT-116 > 100 µM | U-251 > 100 µM | OVCAR-8 > 100 µM | SN12C > 100 µM | SK-OV-3 > 100 µM | SK-MEL-28 > 100 µM | SF-295 52.6 µM | HOP-62 74 µM | UO-31 44.8 µM | SF-539 > 100 µM | Malme-3M > 100 µM | SW-620 > 100 µM | M14 > 100 µM

CC(=O)Oc1cc2oc(=O)cc(C)c2cc1OC(C)=O
inactive: SF-268 36.6 µM | IGROV-1 27.9 µM | COLO 205 48 µM | HCT-116 44 µM | U-251 51.1 µM | OVCAR-8 32.2 µM | SN12C 48.1 µM | SK-OV-3 > 100 µM | MOLT-4 74.8 µM | SK-MEL-28 53.1 µM | SF-295 41.8 µM | HOP-62 51.8 µM | UO-31 24.6 µM | SF-539 31.3 µM | Malme-3M 28.5 µM | SW-620 46.2 µM | M14 50.6 µM

Cc1nc2c(sc(=S)n2-c2ccccc2)c2nc3ccccc3n12
inactive: SF-268 > 100 µM | IGROV-1 > 100 µM | COLO 205 > 100 µM | U-251 > 100 µM | OVCAR-8 > 100 µM | SN12C > 100 µM | SK-OV-3 > 100 µM | HL-60 > 100 µM | MOLT-4 > 100 µM | SK-MEL-28 > 100 µM | SF-295 > 100 µM | HOP-62 > 100 µM | UO-31 > 100 µM | SF-539 > 100 µM | Malme-3M > 100 µM | M14 > 100 µM
